Experimental data: US12098180B2, “Compositions and uses of vasoactive intestinal peptide (VIP) antagonists” (EMORY UNIVERSITY, priority 2018, dated 2024)

Assays:
[1] = test system: T cells from luciferase+C57/BL6 mice; experiment: T cell proliferation in short-term culture with plate bound anti-CD3 antibody and IL-2; format: cell-based
Method: T cells from luciferase+C57/BL6 mice were harvested and cultured in 96-well plate with 1 μg/ml anti-CD3 antibody and 30 U/ml IL-2 in the presence of original VIPhyb, Ant-1, Ant-2, Ant-3, Ant-4, Ant-5, Ant-6, Ant-7 or Ant-8 at 1 μM.
T cells from luciferase+C57/BL6 mice were harvested and cultured in 96-well plate with either 0.5 μg/ml or 1 μg/ml anti-CD3 antibody and 30 U/ml IL-2 in the presence of original VIPhyb or Ant-8 at 0.5 μM, 1 μM or 3 μM.
The peptides (SEQ ID NO: 3-10 in FIG. 1) were added to short-term cultures of luciferase positive T-cells cultured in the presence of plate bound anti CD3 antibody in 96 well plates. The concentration of anti-CD3 antibody was either 0.5 mcg per ml or 1 mcg per ml. The T-cells from luciferase transgenic mice were added in the presence of low-dose IL-2 and 0.5 micromolar, 1 micromolar, or 3 micromolar concentrations of the original VIPhyb peptide or the alternative ANT-1 to ANT-8 peptide sequences were added.

[2] = test system: T cells from Chronic lymphocytic leukemia (CLL) donors; experiment: Ex vivo expansion of T cells with anti-CD3/28 beads and IL-2; format: cell-based; details: anti-CD3/28 beads and 30 U/mL IL-2
acute leukemia = details: Oncoimmunology, 2017, 6(5):e1304336; cited from earlier work

| Sequence | T-cell proliferation using lower concentrations of anti-CD3 ([1]; lower anti-CD3 concentration (0.5 mcg per ml), compared to control cultures with plate bound anti-CD3 and no added peptides) | antagonist activity compared to the native VIPhyb ([1]; overall conclusion from the T-cell proliferation cultures) | T-cell proliferation at 24 hours ([1]; peptide at 0.5, 1 and 3 micromolar, compared to the original VIPhyb peptide at the same concentrations) | yields of T cells during ex vivo expansion [2] | autologous anti-leukemia T cell response (acute leukemia) |
| --- | --- | --- | --- | --- | --- |
| KPRRPYTDNYTRLRKQMAVKKYLNLILN [ANT-8, VIPhyb variant with S to L substitution at position 25] | more modest and not significantly different from control cultures | improved antagonist activity | enhanced T-cell proliferation | enhance yields of T cells | – |
| KPRRPYTDNYTRLRKQMAVKKYLNSILN [VIPhyb, chimeric peptide VIP antagonist; six N-terminal amino acids of native VIP replaced] | – | – | – | – | enhances the autologous anti-leukemia T cell response |
